Assays:
Rattus norvegicus [1] = species on record: Rattus norvegicus; test: Effect on TAase activity assessed as inhibition of GST in liver microsome at 50 uM; type: microsomes
Rattus norvegicus [2] = species on record: Rattus norvegicus; test: Effect on TAase activity assessed as activation of liver microsomal NADPH cytochrome P450 at 5 uM
Rattus norvegicus [3] = species on record: Rattus norvegicus; test: Inhibition of liver microsomal EROD at 25 uM
Bone marrow cell = test: Inhibition of micronuclei formation in benzene-induced in Wistar Albino rat bone marrow cells at 300 mg/ kg, ip after 1 hr; type: functional; conditions: route intraperitoneal

| inhibition (Rattus norvegicus [1]) | Activity (Rattus norvegicus [2]) | inhibition (Rattus norvegicus [3]) | SMILES | inhibition in vivo at 300 mg/kg (Bone marrow cell) |
| --- | --- | --- | --- | --- |
| 15.3% | 27.6% | – | CC(=O)Oc1ccc2c(=O)c(C(C)=O)c(C)oc2c1OC(C)=O | – |
| 3.96% | 7.17% | – | CCCCCCC(c1cc(=O)oc2cc(OC(C)=O)ccc12)S(=O)(=O)c1ccccc1 (stereo unspecified) | – |
| 6.89% | 14.5% | 32.4% | CC(=O)Oc1ccc2c(=O)c(-c3ccccc3)coc2c1OC(C)=O | – |
| 4.01% | 7.6% | – | CC(=O)Oc1ccc2c(C(C/C=C/C#CC(C)(C)C)S(=O)(=O)c3ccccc3)cc(=O)oc2c1 (stereo unspecified) | – |
| 10.1% | 17.2% | 39.3% | CC(=O)Oc1ccc2c(OC(C)=O)c(Cc3c(OC(C)=O)c4ccc(OC(C)=O)c(OC(C)=O)c4oc3=O)c(=O)oc2c1OC(C)=O | 37.9% |
| 7.65% | 15.6% | – | CC(=O)Oc1cc(C(C)=O)c2c(C)cc(=O)oc2c1 | – |
| 3.43% | 5.06% | – | CC(=O)Oc1cccc2oc3ccccc3c(=O)c12 | – |
| 12.7% | 21.7% | 41.9% | CC(=O)Oc1ccc(OC(C)=O)c2c(=O)c3ccccc3oc12 | – |
| 3.31% | 6.77% | – | CC(=O)Oc1ccc2c(c1)OC(=O)CC2c1ccccc1 (stereo unspecified) | – |
| 15.2% | 25.8% | 58.4% | CC(=O)Oc1ccc2c(C)cc(=O)oc2c1OC(C)=O | 65% |
| 3.1% | 7.1% | 16.1% | CC(=O)Oc1ccc2c(=O)c(-c3ccccc3)c(C)oc2c1 | – |
| 3.6% | 6.9% | 16.4% | CC(=O)Oc1ccc2c(=O)cc(-c3ccccc3)oc2c1 | – |
| 7.1% | 14.5% | 30.8% | CC(=O)Oc1ccc2c(C)cc(=O)oc2c1 | 44.6% |
| 10.1% | 16.1% | – | CC(=O)Oc1cc2c(=O)oc3c(OC(C)=O)c(OC(C)=O)cc4c(=O)oc(c1OC(C)=O)c2c34 [ELLAGIC ACID TETRAACETATE] | 39.6% |
| 10.4% | 15.9% | – | CC(=O)Oc1ccc2c(C(C/C=C/C#CC(C)(C)C)S(=O)(=O)c3ccccc3)cc(=O)oc2c1OC(C)=O (stereo unspecified) | – |
| 6.03% | 15.1% | 31.5% | CC(=O)Oc1ccc2c(=O)c(C(C)=O)c(C)oc2c1 | – |
| 6.68% | 16.7% | – | CC(=O)Oc1cc(OC(C)=O)c2c(=O)c(C(C)=O)c(C)oc2c1 | – |
